{"source": "patent US9663517B2", "about": "“Compositions and uses thereof” (Plexxikon Inc., priority 2009, dated 2017)", "assay": "pKa of weakly basic centre", "assay_type": "physicochemical", "conditions": "N-7 of the azaindole portion", "description": "Propane-1-sulfonic acid {3-[5-(4-chloro-phenyl)-1H-pyrrolo[2,3-b]pyridine-3-carbonyl]-2,4-difluoro-phenyl}-amide is characterized as having functionalities providing both weakly basic and weakly acidic centers which can form organic salt complexes, resulting in improved solubility. For example, the N-7 of the azaindole portion is weakly basic (pKa approximately 4-5) and can form an acid addition salt complex with an organic acid such as benzenesulfonic acid, methylsulfonic acid or toluenesulfonic acid, preferably methanesulfonic acid or toluenesulfonic acid. Such mesylate or tosylate salts provide advantage over the free base, such as an improved solubility, improved intrinsic dissolution rate, and lower melting point than the free base. The improved intrinsic dissolution rate provides an advantage in formulation of the salt, for example, formulation in an amorphous form by methods described in the above examples. The improved solubility provides more efficient and cost effective formulation, for example spray drying or microprecipitated bulk processing can be performed using far less solvent volumes due to the intrinsic solubility. Such advantages may also be provided by formation of the mesylate or tosylate salt in situ during the processing, for example the process of spray drying, solvent controlled precipitation, or pH controlled precipitation. […]", "data": [{"smiles": "CCCS(=O)(=O)Nc1ccc(F)c(C(=O)c2c[nH]c3ncc(-c4ccc(Cl)cc4)cc23)c1F", "note": "[Compound I, propane-1-sulfonic acid {3-[5-(4-chloro-phenyl)-1H-pyrrolo[2,3-b]pyridine-3-carbonyl]-2,4-difluoro-phenyl}-amide]", "values": [{"measurement": "pKa", "value": "4 to 5"}]}]}
